Calls of active or inactive are those of the source. The calls are words filed in the database; no cut-off is given here.
Assays:
[1] = system: HK-2; experiment: Effect on ATP7A mRNA level in human HK-2 cells by transcriptome sequencing analysis; format: functional, cell-based; conditions: dose 2.5-10 µM
[2] = system: Cell membrane; experiment: Induction of mitochondrial membrane potential loss in human HK-2 cells at 2.5 to 10 uM by JC-1 staining based laser microscopic analysis; format: cell membranes; conditions: dose 2.5-10 µM
[3] = system: HK-2; experiment: Effect on ATP7B mRNA level in human HK-2 cells by transcriptome sequencing analysis; format: functional, cell-based; conditions: dose 2.5-10 µM
[4] = system: HK-2; experiment: Effect on SLC47A1 mRNA level in human HK-2 cells by transcriptome sequencing analysis; format: functional, cell-based
[5] = system: HK-2; experiment: Upregulation of ATP7B level in human HK-2 cells at 2.5 to 10 uM by Western blot analysis; format: functional, cell-based; conditions: dose 2.5-10 µM
[6] = system: HK-2; experiment: Upregulation of CTR1 mRNA level in human HK-2 cells at 2.5 to 10 uM by RT-qPCR analysis; format: functional, cell-based; conditions: dose 2.5-10 µM
[7] = system: HK-2; experiment: Effect on OCT2 mRNA level in human HK-2 cells by transcriptome sequencing analysis; format: functional, cell-based
[8] = system: HK-2; experiment: Effect on OCT1 mRNA level in human HK-2 cells by transcriptome sequencing analysis; format: functional, cell-based
[9] = system: HK-2; experiment: Induction of autophagy in human HK-2 cells assessed as upregulation of ATG5 expression at 2.5 to 10 uM by Western blotting analysis; format: functional, cell-based; conditions: dose 2.5-10 µM
[10] = system: HK-2; experiment: Effect on CTR1 mRNA level in human HK-2 cells by transcriptome sequencing analysis; format: functional, cell-based
[11] = system: HK-2; experiment: Protection against cisplatin-induced apoptosis in human HK-2 cells preincubated with compound for 2 hrs followed by cisplatin induction and measured after 48 hrs by FITC/PI staining based flow cytometry analysis; format: functional, cell-based; conditions: dose 2.5-10 µM, time 50.0 hrs
[12] = system: HK-2; experiment: Induction of autophagy in human HK-2 cells assessed as upregulation of p62 expression at 2.5 to 10 uM by Western blotting analysis; format: functional, cell-based; conditions: dose 2.5-10 µM
[13] = system: HK-2; experiment: Induction of autophagy in human HK-2 cells assessed as […] at 2.5 to 10 uM by Western blotting analysis; format: functional, cell-based; conditions: dose 2.5-10 µM
[14] = system: HCT-116; experiment: Cytotoxicity against human HCT-116 cells; format: functional, cell-based
[15] = system: Cell membrane; experiment: Induction of mitochondrial membrane potential loss in human HK-2 cells assessed as increase in OPA1 expression by Western blot analysis; format: cell membranes; conditions: dose 2.5-10 µM
[16] = system: HK-2; experiment: Upregulation of ATP7A level in human HK-2 cells at 2.5 to 10 uM by Western blot analysis; format: functional, cell-based; conditions: dose 2.5-10 µM
[17] = system: NCI-H1299; experiment: Cytotoxicity against human NCI-H1299 cells; format: functional, cell-based
[18] = system: HK-2; experiment: Protection against cisplatin-induced apoptosis in human HK-2 cells assessed as reduction in BAX expression preincubated with compound for 2 hrs followed by cisplatin induction and measured after 48 hrs by Western blotting analysis; format: functional, cell-based; conditions: dose 2.5-10 µM, time 50.0 hrs
[19] = system: Mus musculus; experiment: Protection against cisplatin-induced nephrotoxicity in C57BL6/J mouse assessed as reduction in infiltration of inflammatory cells at 100 mg/kg, po preadministered with compound for 2 days followed by cisplatin addition on day 3 and measured 72 hrs post cisplatin administration by H and E staining based analysis; format: functional, organism-based; conditions: time 5.0 day
[20] = system: HK-2; experiment: Induction of autophagy in human HK-2 cells assessed as upregulation of beclin1 expression at 2.5 to 10 uM by Western blotting analysis; format: functional, cell-based; conditions: dose 2.5-10 µM
[21] = system: HK-2; experiment: Protection against cisplatin-induced apoptosis in human HK-2 cells assessed as improvement in cell number preincubated with compound for 2 hrs followed by cisplatin induction and measured after 48 hrs by light microscopic analysis; format: functional, cell-based; conditions: dose 2.5-10 µM, time 50.0 hrs
[22] = system: Lewis lung carcinoma; experiment: Antitumor activity against cisplatin-induced mouse Lewis lung carcinoma cell line xenografted in po dosed C57BL/6J mouse assessed as reduction in BUN level in serum preadministered with compound for 2 days followed by cisplatin addition on day 3 and measured 72 hrs post cisplatin administration; format: functional, organism-based; conditions: dose 25-100 mg/kg, time 5.0 day
[23] = system: Lewis lung carcinoma; experiment: Cytotoxicity against mouse Lewis lung carcinoma cell line; format: functional, cell-based
[24] = system: HK-2; experiment: Upregulation of PI3K gene expression in human HK-2 cells by KEGG analysis; format: functional, cell-based
[25] = system: NCI-H460; experiment: Cytotoxicity against human NCI-H460 cells; format: functional, cell-based
[26] = system: HK-2; experiment: Induction of autophagy in human HK-2 cells assessed as upregulation of AMPKalpha expression at 2.5 to 10 uM by Western blotting analysis; format: functional, cell-based; conditions: dose 2.5-10 µM
[27] = system: Mus musculus; experiment: Protection against cisplatin-induced nephrotoxicity in C57BL6/J mouse assessed as reduction in BUN level in kidney at 25 to 100 mg/kg, po preadministered with compound for 2 days followed by cisplatin addition on day 3 and measured 72 hrs post cisplatin administration; format: functional, organism-based; conditions: dose 25-100 mg/kg, time 5.0 day
[28] = system: HK-2; experiment: Protection against cisplatin-induced apoptosis in human HK-2 cells assessed as reduction in cleaved caspase 3 expression preincubated with compound for 2 hrs followed by cisplatin induction and measured after 48 hrs by Western blot analysis; format: functional, cell-based; conditions: dose 2.5-10 µM, time 50.0 hrs
[29] = system: HK-2; experiment: Induction of autophagy in human HK-2 cells assessed as upregulation of PI3K class III expression at 2.5 to 10 uM by Western blotting analysis; format: functional, cell-based; conditions: dose 2.5-10 µM
[30] = system: HK-2; experiment: Reduction in intracellular cisplatin accumulation in human HK-2 cells by ICP-MS analysis; format: functional, cell-based; conditions: dose 2.5-10 µM
[31] = system: HK-2; experiment: Upregulation of ATP7A mRNA level in human HK-2 cells at 2.5 to 10 uM by RT-qPCR analysis; format: functional, cell-based; conditions: dose 2.5-10 µM
[32] = system: HK-2; experiment: Effect on MRP1 mRNA level in human HK-2 cells by transcriptome sequencing analysis; format: functional, cell-based
[33] = system: HK-2; experiment: Inhibition of cisplatin-induced DNA damage in human HK-2 cells assessed as reduction in cleaved-PARP level at 2.5 to 10 uM by Western blot analysis; format: functional, cell-based; conditions: dose 2.5-10 µM
[34] = system: HK-2; experiment: Inhibition of cisplatin-induced DNA damage in human HK-2 cells assessed as […] in comet tail length by comet assay; format: functional, cell-based; conditions: dose 2.5-10 µM
[35] = system: HK-2; experiment: Upregulation of AMPK gene expression in human HK-2 cells by KEGG analysis; format: functional, cell-based
[36] = (§1) Antitumor activity against cisplatin-induced mouse Lewis lung carcinoma cell line xenografted C57BL/6J mouse assessed as reduction in tumor mass at 25 to 50 mg/kg, po preadministered with compound for 2 days followed by cisplatin addition on day 3 and measured 72 hrs post cisplatin administration; format: functional; parameters: scale not given: the % may be the effect or the level left; conditions: dose 25-50 mg/kg, time 5 day
[37] = system: Cell membrane; experiment: Induction of mitochondrial membrane potential loss in human HK-2 cells assessed as increase in ATP5A1 expression by Western blot analysis; format: cell membranes; conditions: dose 2.5-10 µM
[38] = system: HK-2; experiment: Upregulation of AKT gene expression in human HK-2 cells by KEGG analysis; format: functional, cell-based
[39] = system: HK-2; experiment: Protection against cisplatin-induced apoptosis in human HK-2 cells assessed as improvement in cell morphology preincubated with compound for 2 hrs followed by cisplatin induction and measured after 48 hrs by light microscopic analysis; format: functional, cell-based; conditions: dose 2.5-10 µM, time 50.0 hrs
[40] = system: HK-2; experiment: Induction of autophagy in human HK-2 cells assessed as upregulation of LC3II expression at 2.5 to 10 uM by Western blotting analysis; format: functional, cell-based; conditions: dose 2.5-10 µM
[41] = system: Cell membrane; experiment: Induction of mitochondrial membrane potential loss in human HK-2 cells assessed as increase in sirtuin 3 expression by Western blot analysis; format: cell membranes; conditions: dose 2.5-10 µM
[42] = system: HK-2; experiment: Inhibition of cisplatin-induced DNA damage in human HK-2 cells assessed as reduction in p-histone-H2AX level at 2.5 to 10 uM by Western blot analysis; format: functional, cell-based; conditions: dose 2.5-10 µM
[43] = system: Lewis lung carcinoma; experiment: as §1, with “inflammatory cell infiltration” for “reduction in tumor mass”, “administration by H and E staining based analysis” for “administration”; format: functional, organism-based; conditions: dose 25-50 mg/kg, time 5.0 day

In the case of COc1c(CO)c(OC)c(C(=O)c2ccccc2)c2c1C[C@H]1CC/C(C)=C/CC(C)(C)/C=C/C[C@]1(C)O2, the Activity [1] is reported as “Dose-Dependent Effect”, the Activity [2] is reported as “Active” and the Activity [3] is reported as “Dose-Dependent Effect”. For the same compound, the Activity [4] was “inactive”, the Activity [5] was “Active” and the Activity [6] was “Active”. For the same compound, the Activity [7] was “inactive”, the Activity [8] was “inactive” and the Activity [9] was “Active”. The Activity [10] was “inactive”, the Activity [11] was “Dose-Dependent Effect” and the Activity [12] was “Active”. The Activity [13] was “Active”, the Activity [14] was “Active” and the Activity [15] was “Active”. The Activity [16] was “Active”, the Activity [17] was “Active” and the Activity [18] was “Dose-Dependent Effect”. For the same compound, the Activity [19] was “Active”, the Activity [20] was “Active” and the Activity [21] was “Dose-Dependent Effect”. The Activity [22] was “Active”, the Activity [23] was “Active” and the Activity [24] was “Active”. For the same compound, the Activity [25] was “Active”, the Activity [26] was “Active” and the Activity [27] was “Active”. The Activity [28] was “Dose-Dependent Effect”, the Activity [29] was “Active” and the Activity [30] was “Dose-Dependent Effect”. The Activity [31] was “Active”, the Activity [32] was “inactive” and the inhibition [33] was “Active”. For the same compound, the inhibition [34] was “Dose-Dependent Effect”, the Activity [35] was “Active” and the Activity [36] was 28.1%. The Activity [37] was “Active”, the Activity [38] was “Active” and the Activity [39] was “Dose-Dependent Effect”. The Activity [40] was “Active”, the Activity [41] was “Active” and the inhibition [42] was “Active”. For the same compound, the Activity [43] was “Active”.

With COc1c(C=O)c(OC)c(C(=O)c2ccccc2)c2c1CC1CC/C(C)=C/CC(C)(C)/C=C/CC1(C)O2 (stereo unspecified) the Activity [1] was “Dose-Dependent Effect”, the Activity [2] was “Active” and the Activity [3] was “Dose-Dependent Effect”. For the same compound, the Activity [4] was “inactive”, the Activity [5] was “Active” and the Activity [6] was “Active”. For the same compound, the Activity [7] was “inactive”, the Activity [8] was “inactive” and the Activity [9] was “Active”. The Activity [10] was “inactive”, the Activity [11] was “Dose-Dependent Effect” and the Activity [12] was “Active”. The Activity [13] was “Active”, the Activity [14] was “Active” and the Activity [15] was “Active”. For the same compound, the Activity [16] was “Active”, the Activity [17] was “Active” and the Activity [18] was “Dose-Dependent Effect”. For the same compound, the Activity [19] was “Active”, the Activity [20] was “Active” and the Activity [21] was “Dose-Dependent Effect”. For the same compound, the Activity [22] was “Active”, the Activity [23] was “Active” and the Activity [24] was “Active”. The Activity [25] was “Active”, the Activity [26] was “Active” and the Activity [27] was “Active”. For the same compound, the Activity [28] was “Dose-Dependent Effect”, the Activity [29] was “Active” and the Activity [30] was “Dose-Dependent Effect”. The Activity [31] was “Active”, the Activity [32] was “inactive” and the inhibition [33] was “Active”. The inhibition [34] was “Dose-Dependent Effect”, the Activity [35] was “Active” and the Activity [36] was 31.4%. For the same compound, the Activity [37] was “Active”, the Activity [38] was “Active” and the Activity [39] was “Dose-Dependent Effect”. The Activity [40] was “Active”, the Activity [41] was “Active” and the inhibition [42] was “Active”. The Activity [43] was “Active”.

Source: ChEMBL document CHEMBL5550222, “Synthesis and Biological Evaluation of Novel Psidium Meroterpenoid Derivatives against Cisplatin-Induced Acute Kidney Injury” (J Med Chem, 2024)
